From ChEMBL document CHEMBL1909046, “DrugMatrix in vitro pharmacology data”

What was measured:
[1] = DRUGMATRIX: Calcium Channel Type L, Benzothiazepine radioligand binding (ligand: [3H] Diltiazem); assay type: cell membranes, Rattus norvegicus, Wistar, Brain, Membrane; settings: Not Active = under 50% inhibition at 10 µM
[2] = DRUGMATRIX: Imidazoline I2, Central radioligand binding (ligand: [3H] Idazoxan); assay type: cell membranes, Rattus norvegicus, Wistar, Cerebral cortex, Membrane; settings: Not Active = under 50% inhibition at 10 µM
[3] = target: T1, Neuropeptide Y receptor type 2 (Homo sapiens, UniProt P49146); assay type: cell membranes, KAN-TS, Membrane; settings: kan-ts; note: in other assays of this panel Not Active means under 50% inhibition at 10 µM
T1 sequence (P49146 whole entry): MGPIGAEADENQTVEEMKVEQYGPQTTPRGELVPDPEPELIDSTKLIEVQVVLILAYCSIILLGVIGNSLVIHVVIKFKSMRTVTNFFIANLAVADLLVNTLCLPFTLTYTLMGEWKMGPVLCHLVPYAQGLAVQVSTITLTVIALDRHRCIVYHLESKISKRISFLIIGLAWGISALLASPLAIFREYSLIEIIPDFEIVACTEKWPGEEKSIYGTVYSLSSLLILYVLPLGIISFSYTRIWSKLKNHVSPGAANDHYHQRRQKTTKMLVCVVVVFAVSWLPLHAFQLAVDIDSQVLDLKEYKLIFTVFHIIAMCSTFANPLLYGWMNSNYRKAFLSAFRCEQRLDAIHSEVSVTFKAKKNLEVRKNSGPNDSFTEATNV

[4] = DRUGMATRIX: Phorbol Ester radioligand binding (ligand: [3H] PDBu); assay type: cell membranes, Mus musculus, ICR, Brain, Membrane; settings: Not Active = under 50% inhibition at 10 µM
[5] = DRUGMATRIX: Platelet-Derived Growth Factor (PDGF) radioligand binding (ligand: [125I] PDGF); assay type: cell-based; settings: nih3t3; Not Active = under 50% inhibition at 10 µM
[6] = target: Matrix metalloproteinase-9 (Homo sapiens, UniProt P14780); test: biochemical; assay type: cell-based;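 note: inhibition of isolated MMP-9 enzyme activity toward a synthetic peptide substrate, from the DrugMatrix protease screening panel; in other assays of this panel Not Active means under 50% inhibition at 10 µM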
Sequence of Matrix metalloproteinase-9 (P14780 whole entry): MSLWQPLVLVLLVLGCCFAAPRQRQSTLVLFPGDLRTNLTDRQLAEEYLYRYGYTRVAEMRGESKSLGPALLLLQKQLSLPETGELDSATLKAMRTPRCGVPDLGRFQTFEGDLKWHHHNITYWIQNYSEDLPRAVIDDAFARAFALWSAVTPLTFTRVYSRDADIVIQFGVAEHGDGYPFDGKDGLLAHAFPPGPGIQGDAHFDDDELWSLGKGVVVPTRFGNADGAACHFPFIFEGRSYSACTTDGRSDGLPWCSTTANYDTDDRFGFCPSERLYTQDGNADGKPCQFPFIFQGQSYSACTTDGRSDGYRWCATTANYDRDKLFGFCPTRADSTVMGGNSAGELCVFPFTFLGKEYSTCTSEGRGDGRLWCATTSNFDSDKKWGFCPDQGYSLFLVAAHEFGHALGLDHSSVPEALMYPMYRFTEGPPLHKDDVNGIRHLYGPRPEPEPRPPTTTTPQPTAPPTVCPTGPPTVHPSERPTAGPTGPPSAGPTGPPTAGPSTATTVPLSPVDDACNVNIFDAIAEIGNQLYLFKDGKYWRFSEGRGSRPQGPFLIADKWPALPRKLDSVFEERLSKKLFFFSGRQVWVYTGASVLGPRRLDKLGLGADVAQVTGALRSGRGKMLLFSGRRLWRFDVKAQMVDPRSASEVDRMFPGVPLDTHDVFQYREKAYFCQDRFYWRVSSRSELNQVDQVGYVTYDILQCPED

Compound	IC50 [1]	Ki [1]	IC50 [2]	Ki [2]	IC50 [3]	IC50 [4]	Ki [4]	IC50 [5]	Ki [5]	IC50 [6]	Ki [3]	Ki [6]	IC50 ([1]; read-out: IC50)	Ki ([1]; read-out: Ki)	IC50 ([2]; read-out: IC50)	Ki ([2]; read-out: Ki)	IC50 ([6]; read-out: IC50)
Cn1c(=O)c2[nH]cnc2n(C)c1=O.Cn1c(=O)c2[nH]cnc2n(C)c1=O.NCCN [AMINOPHYLLINE]	Not Active	Not Active	Not Active	Not Active	Not Active	Not Active	Not Active	Not Active	Not Active	Not Active	–	–	–	–	–	–	–
GENTAMICIN	Not Active	Not Active	Not Active	Not Active	Not Active	Not Active	Not Active	Not Active	Not Active	Not Active	Not Active	Not Active	–	–	–	–	–
CCCNCC(O)COc1ccccc1C(=O)CCc1ccccc1 (stereo unspecified) [PROPAFENONE]	–	–	Not Active	Not Active	Not Active	Not Active	Not Active	Not Active	Not Active	Not Active	–	–	775 nM	689 nM	–	–	–
C=CCc1ccc(O)c(OC)c1 [EUGENOL]	Not Active	Not Active	Not Active	Not Active	Not Active	Not Active	Not Active	Not Active	Not Active	Not Active	–	–	–	–	–	–	–
COc1ccc2[nH]cc(CCNC(C)=O)c2c1 [MELATONIN]	Not Active	Not Active	Not Active	Not Active	Not Active	Not Active	Not Active	Not Active	Not Active	Not Active	–	–	–	–	–	–	–
CC(C)NCC(O)COc1cccc2[nH]ccc12 (stereo unspecified) [PINDOLOL]	Not Active	Not Active	Not Active	Not Active	Not Active	Not Active	Not Active	Not Active	Not Active	Not Active	–	–	–	–	–	–	–
N=C(N)NC(=O)Cc1c(Cl)cccc1Cl [GUANFACINE]	Not Active	Not Active	–	–	Not Active	Not Active	Not Active	Not Active	Not Active	Not Active	–	–	–	–	45 nM	30 nM	–
O=C(N/N=C/c1ccc([N+](=O)[O-])o1)c1cc([N+](=O)[O-])cc([N+](=O)[O-])c1O [NIFURSOL]	Not Active	Not Active	Not Active	Not Active	Not Active	Not Active	Not Active	Not Active	Not Active	Not Active	–	–	–	–	–	–	–
COc1cc2nc(N3CCN(C(=O)c4ccco4)CC3)nc(N)c2cc1OC [PRAZOSIN]	Not Active	Not Active	–	–	Not Active	Not Active	Not Active	Not Active	Not Active	–	–	–	–	–	–	633 nM	6960 nM
CC(C)NNC(=O)c1ccncc1 [IPRONIAZID]	Not Active	Not Active	Not Active	Not Active	Not Active	Not Active	Not Active	Not Active	Not Active	Not Active	–	–	–	–	–	–	–
COc1cc([C@@H]2c3cc4c(cc3[C@@H](O[C@@H]3O[C@@H]5CO[C@@H](C)O[C@H]5[C@H](O)[C@H]3O)[C@H]3COC(=O)[C@H]23)OCO4)cc(OC)c1O [ETOPOSIDE]	Not Active	Not Active	Not Active	Not Active	Not Active	Not Active	Not Active	Not Active	Not Active	Not Active	–	–	–	–	–	–	–
CC(C(=O)O)c1cccc(Oc2ccccc2)c1 (stereo unspecified) [FENOPROFEN]	Not Active	Not Active	Not Active	Not Active	Not Active	Not Active	Not Active	Not Active	Not Active	Not Active	–	–	–	–	–	–	–
